What was measured:
SMARCA2 = SMARCA2 (Homo sapiens, UniProt P51531); experiment: HiBit assay in engineered HT1080 CRISPR knock-in cell, 6 hrs (B series), SMARCA2; type: cell-based; conditions: 6 hrs incubation; for DC50: read-out: SMARC A2 HT1080 HiBit DC50; for Dmax: HT-1080, HT1080 CRISPR knock-in cells, read-out: SMARC A2 HT1080 HiBit Dmax (%)
Outline: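 HT1080 CRISPR knock-in cells carrying HiBiT-tagged SMARCA2 seeded onto compound (0.1% DMSO) at 2000 cells/well. Incubated 6 h at 37 °C, 5% CO2, then lysed with Nano-Glo HiBiT lytic reagent containing LgBiT, and luminescence read.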

SMARCA4 = SMARCA4 (Homo sapiens, UniProt P51532); experiment: HiBit assay in engineered HT1080 CRISPR knock-in cell, 6 hrs (B series), SMARCA4; type: cell-based; conditions: 6 hrs incubation; for DC50: read-out: SMARC A4 HT1080 HiBit DC50; for Dmax: HT-1080, HT1080 CRISPR knock-in cells, read-out: SMARC A4 HT1080 HiBit Dmax(%)
Sequence of SMARCA4 (P51532 whole entry): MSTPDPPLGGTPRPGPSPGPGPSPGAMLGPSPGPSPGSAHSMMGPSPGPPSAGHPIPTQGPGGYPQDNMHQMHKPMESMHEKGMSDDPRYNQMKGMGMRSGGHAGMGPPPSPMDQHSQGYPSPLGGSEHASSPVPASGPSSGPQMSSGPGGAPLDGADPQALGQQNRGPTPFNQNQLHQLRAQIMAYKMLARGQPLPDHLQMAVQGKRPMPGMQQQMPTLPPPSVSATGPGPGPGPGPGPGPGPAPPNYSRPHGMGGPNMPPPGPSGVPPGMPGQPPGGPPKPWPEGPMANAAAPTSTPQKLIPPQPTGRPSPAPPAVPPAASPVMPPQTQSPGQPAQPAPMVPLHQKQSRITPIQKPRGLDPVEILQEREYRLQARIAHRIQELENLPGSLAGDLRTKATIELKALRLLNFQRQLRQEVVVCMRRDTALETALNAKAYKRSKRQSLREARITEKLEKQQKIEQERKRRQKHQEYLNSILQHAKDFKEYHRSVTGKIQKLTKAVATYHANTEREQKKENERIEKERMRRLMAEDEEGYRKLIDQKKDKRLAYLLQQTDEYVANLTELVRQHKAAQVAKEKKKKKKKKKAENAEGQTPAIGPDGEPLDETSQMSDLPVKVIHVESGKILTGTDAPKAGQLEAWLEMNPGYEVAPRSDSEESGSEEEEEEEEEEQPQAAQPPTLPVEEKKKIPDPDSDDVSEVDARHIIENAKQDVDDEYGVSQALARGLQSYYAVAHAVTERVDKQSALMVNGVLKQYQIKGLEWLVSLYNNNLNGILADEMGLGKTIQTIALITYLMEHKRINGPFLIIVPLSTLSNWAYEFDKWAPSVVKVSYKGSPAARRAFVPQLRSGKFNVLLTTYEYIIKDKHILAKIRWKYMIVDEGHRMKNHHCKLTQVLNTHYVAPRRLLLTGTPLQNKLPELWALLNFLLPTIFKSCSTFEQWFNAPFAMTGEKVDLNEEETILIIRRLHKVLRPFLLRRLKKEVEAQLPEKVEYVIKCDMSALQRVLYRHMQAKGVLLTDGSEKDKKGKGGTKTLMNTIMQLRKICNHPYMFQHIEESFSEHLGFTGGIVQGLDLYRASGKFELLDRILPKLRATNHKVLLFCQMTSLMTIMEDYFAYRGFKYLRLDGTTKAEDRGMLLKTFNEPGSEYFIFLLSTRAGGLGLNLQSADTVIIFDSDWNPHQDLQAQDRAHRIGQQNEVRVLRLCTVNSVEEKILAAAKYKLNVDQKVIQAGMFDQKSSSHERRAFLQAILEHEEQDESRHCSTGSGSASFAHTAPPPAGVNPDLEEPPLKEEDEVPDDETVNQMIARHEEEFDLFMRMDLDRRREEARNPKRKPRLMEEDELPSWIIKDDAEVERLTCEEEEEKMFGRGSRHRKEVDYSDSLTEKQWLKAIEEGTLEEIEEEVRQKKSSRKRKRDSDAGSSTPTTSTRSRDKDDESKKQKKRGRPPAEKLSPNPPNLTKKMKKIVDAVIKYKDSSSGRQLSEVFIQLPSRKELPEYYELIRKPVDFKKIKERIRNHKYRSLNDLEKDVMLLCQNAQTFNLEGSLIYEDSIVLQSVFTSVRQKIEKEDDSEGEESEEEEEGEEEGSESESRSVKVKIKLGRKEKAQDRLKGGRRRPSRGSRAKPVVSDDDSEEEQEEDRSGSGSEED
Outline: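 Compounds were dispensed first, then HT1080 knock-in cells added and incubated for 6 hrs at 37° C. Next, detection reagent containing LgBiT and lytic substrate was added. Plates were shaken 10 min and centrifuged, and luminescence was measured.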

Sequence of SMARCA2 (P51531 whole entry): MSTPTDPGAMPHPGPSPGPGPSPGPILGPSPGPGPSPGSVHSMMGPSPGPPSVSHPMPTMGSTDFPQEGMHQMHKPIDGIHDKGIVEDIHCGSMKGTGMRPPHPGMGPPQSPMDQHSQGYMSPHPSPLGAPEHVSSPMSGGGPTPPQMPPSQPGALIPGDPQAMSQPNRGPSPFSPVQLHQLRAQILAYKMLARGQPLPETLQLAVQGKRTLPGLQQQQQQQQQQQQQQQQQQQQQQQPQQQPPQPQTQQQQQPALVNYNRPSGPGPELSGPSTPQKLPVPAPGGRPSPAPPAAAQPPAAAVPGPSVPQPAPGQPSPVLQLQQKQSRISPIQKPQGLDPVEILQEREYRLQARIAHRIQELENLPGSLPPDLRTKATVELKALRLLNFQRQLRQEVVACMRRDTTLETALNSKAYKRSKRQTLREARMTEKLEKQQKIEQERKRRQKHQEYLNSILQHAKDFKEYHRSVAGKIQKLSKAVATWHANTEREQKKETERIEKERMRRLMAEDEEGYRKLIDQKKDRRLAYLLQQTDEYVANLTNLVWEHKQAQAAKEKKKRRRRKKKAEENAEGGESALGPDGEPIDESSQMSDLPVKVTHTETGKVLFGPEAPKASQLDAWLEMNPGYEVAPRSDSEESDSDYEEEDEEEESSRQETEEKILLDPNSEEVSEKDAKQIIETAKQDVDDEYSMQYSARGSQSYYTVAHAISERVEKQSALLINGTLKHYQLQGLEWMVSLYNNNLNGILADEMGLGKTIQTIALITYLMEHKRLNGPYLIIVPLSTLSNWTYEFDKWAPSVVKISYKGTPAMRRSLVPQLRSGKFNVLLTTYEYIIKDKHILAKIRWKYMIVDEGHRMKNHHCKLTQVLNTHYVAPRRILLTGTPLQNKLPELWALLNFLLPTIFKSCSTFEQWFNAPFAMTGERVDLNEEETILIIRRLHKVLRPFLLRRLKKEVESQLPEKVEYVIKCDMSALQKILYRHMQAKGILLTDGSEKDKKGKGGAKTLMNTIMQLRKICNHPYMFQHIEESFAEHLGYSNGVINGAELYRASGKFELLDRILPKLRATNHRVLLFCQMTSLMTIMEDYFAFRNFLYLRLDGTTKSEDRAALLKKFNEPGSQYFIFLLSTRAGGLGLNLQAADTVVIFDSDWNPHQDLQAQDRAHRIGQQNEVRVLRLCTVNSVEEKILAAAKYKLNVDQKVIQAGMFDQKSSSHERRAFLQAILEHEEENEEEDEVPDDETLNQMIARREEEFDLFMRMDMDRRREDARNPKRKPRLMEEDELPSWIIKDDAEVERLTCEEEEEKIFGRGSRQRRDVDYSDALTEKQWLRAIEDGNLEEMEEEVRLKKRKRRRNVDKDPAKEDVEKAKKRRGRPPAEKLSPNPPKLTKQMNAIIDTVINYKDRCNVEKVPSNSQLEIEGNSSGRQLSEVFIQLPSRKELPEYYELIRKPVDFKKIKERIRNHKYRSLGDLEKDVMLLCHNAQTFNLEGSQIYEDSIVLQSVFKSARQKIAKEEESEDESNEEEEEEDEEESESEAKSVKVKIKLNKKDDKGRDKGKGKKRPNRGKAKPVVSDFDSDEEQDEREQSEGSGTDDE

Structure (SMILES)	DC50 (SMARCA2; HT1080 CRISPR knock-in cells)	Dmax (SMARCA2)	DC50 (SMARCA4; HT1080 CRISPR knock-in cells)	Dmax (SMARCA4)	SMARC A2 HT1080 HiBit Dmax (%) (SMARCA2; HT1080 CRISPR knock-in cells)	SMARC A4 HT1080 HiBit Dmax(%) (SMARCA4; HT1080 CRISPR knock-in cells)
Cc1ncsc1-c1ccc([C@H](C)NC(=O)[C@@H]2C[C@@H](O)CN2C(=O)[C@@H](c2cc(OC3CCC(N4CCC(c5ccc6c(c5)-n5c(nc(=O)c7c(Cl)cccc75)C6(C)C)CC4)CC3)no2)C(C)C)cc1 (stereo partly drawn) [Compound B81, (2S,4R)-1-((R)-2-(3-((4-(4-(4-chloro-7,7-dimethyl-5-oxo-5,7-dihydroindolo[1,2-a]quinazolin-10-yl)piperidin-1-yl)cyclohexyl)oxy)isoxazol-5-yl)-3-methylbutanoyl)-4-hydroxy-N-((S)-1-(4-(4-methylthiazol-5-yl)phenyl)ethyl)pyrrolidine-2-carboxamide]	< 100 nM	> 90%	< 100 nM	< 50%	–	–
Cc1ncsc1-c1ccc([C@H](C)NC(=O)[C@@H]2C[C@@H](O)CN2C(=O)[C@H](C(C)C)n2cc(C3CCC(CN4CCC(c5ccc6c(c5)C(C)(C)c5nc(=O)c7c(Cl)cccc7n5-6)CC4)CC3)nn2)cc1 (stereo partly drawn) [Compound B19, (2S,4R)-1-((S)-2-(4-(4-((4-(4-chloro-7,7-dimethyl-5-oxo-5,7-dihydroindolo[1,2-a]quinazolin-9-yl)piperidin-1-yl)methyl)cyclohexyl)-1H-1,2,3-triazol-1-yl)-3-methylbutanoyl)-4-hydroxy-N-((S)-1-(4-(4-methylthiazol-5-yl)phenyl)ethyl)pyrrolidine-2-carboxamide]	< 100 nM	> 90%	100 to 500 nM	70 to 90%	–	–
Cc1ncsc1-c1ccc([C@H](C)NC(=O)[C@@H]2C[C@@H](O)CN2C(=O)[C@@H](NC(=O)CCn2cc(-c3ccc4c(c3)-n3c(nc(=O)c5c(Cl)cccc53)C4(C)C)cn2)C(C)(C)C)cc1 [Compound B92, (2S,4R)-1-((S)-2-(3-(4-(4-chloro-7,7-dimethyl-5-oxo-5,7-dihydroindolo[1,2-a]quinazolin-10-yl)-1H-pyrazol-1-yl)propanamido)-3,3-dimethylbutanoyl)-4-hydroxy-N-((S)-1-(4-(4-methylthiazol-5-yl)phenyl)ethyl)pyrrolidine-2-carboxamide]	> 1000 nM	< 50%	> 1000 nM	< 50%	–	–
Cc1ncsc1-c1ccc([C@H](C)NC(=O)[C@@H]2C[C@@H](O)CN2C(=O)[C@H](C(C)C)n2cc(CN3CCC(c4ccc5c(c4)C(C)(C)c4nc(=O)c6c(Cl)cccc6n4-5)CC3)nn2)cc1 [Compound B29, (2S,4R)-1-((S)-2-(4-((4-(4-chloro-7,7-dimethyl-5-oxo-5,7-dihydroindolo[1,2-a]quinazolin-9-yl)piperidin-1-yl)methyl)-1H-1,2,3-triazol-1-yl)-3-methylbutanoyl)-4-hydroxy-N—((S)-1-(4-(4-methylthiazol-5-yl)phenyl)ethyl)pyrrolidine-2-carboxamide]	< 100 nM	> 90%	< 100 nM	> 90%	–	–
Cc1ncsc1-c1ccc(C2(NC(=O)[C@@H]3C[C@@H](O)CN3C(=O)[C@@H](n3cc([C@H]4CC[C@H](CN5CCC(c6ccc7c(c6)-n6c(nc(=O)c8c(Cl)cccc86)C7(C)C)CC5)CC4)nn3)C(C)(C)C)CNC2)cc1 [Compound B113, (2S,4R)-1-((S)-2-(4-((1r,4S)-4-((4-(4-chloro-7,7-dimethyl-5-oxo-5,7-dihydroindolo[1,2-a]quinazolin-10-yl)piperidin-1-yl)methyl)cyclohexyl)-1H-1,2,3-triazol-1-yl)-3,3-dimethylbutanoyl)-4-hydroxy-N-(3-(4-(4-methylthiazol-5-yl)phenyl)azetidin-3-yl)pyrrolidine-2-carboxamide]	100 to 500 nM	> 90%	501 to 1000 nM	< 50%	–	–
Cc1ncsc1-c1ccc([C@H](C)NC(=O)[C@@H]2C[C@@H](O)CN2C(=O)[C@@H](NC(=O)CCCCn2cc(-c3ccc4c(c3)-n3c(nc(=O)c5c(Cl)cccc53)C4(C)C)cn2)C(C)(C)C)cc1 [Compound B64, (2S,4R)-1-((S)-2-(5-(4-(4-chloro-7,7-dimethyl-5-oxo-5,7-dihydroindolo[1,2-a]quinazolin-10-yl)-1H-pyrazol-1-yl)pentanamido)-3,3-dimethylbutanoyl)-4-hydroxy-N-((S)-1-(4-(4-methylthiazol-5-yl)phenyl)ethyl)pyrrolidine-2-carboxamide]	100 to 500 nM	< 50%	> 1000 nM	< 50%	–	–
Cc1ncsc1-c1ccc([C@H](C)NC(=O)[C@@H]2C[C@@H](O)CN2C(=O)[C@@H](n2cc(C34CC(C(=O)N5CCC(c6ccc7c(c6)-n6c(nc(=O)c8c(Cl)cccc86)C76CCCCC6)CC5)(C3)C4)nn2)C(C)(C)C)cc1 [Compound B169]	< 100 nM	70 to 90%	< 100 nM	50 to 69%	–	–
Cc1ncsc1-c1ccc([C@H](C)NC(=O)[C@@H]2C[C@@H](O)CN2C(=O)[C@@H](c2cc(OCCCCN3CCC(c4ccc5c(c4)C(C)(C)c4nc(=O)c6c(Cl)cccc6n4-5)CC3)no2)C(C)C)cc1 [Compound B12, (2S,4R)-1-((R)-2-(3-(4-(4-(4-chloro-7,7-dimethyl-5-oxo-5,7-dihydroindolo[1,2-a]quinazolin-9-yl)piperidin-1-yl)butoxy)isoxazol-5-yl)-3-methylbutanoyl)-4-hydroxy-N-((S)-1-(4-(4-methylthiazol-5-yl)phenyl)ethyl)pyrrolidine-2-carboxamide]	< 100 nM	> 90%	< 100 nM	> 90%	–	–
Cc1cc(C(C(=O)N2C[C@H](O)C[C@H]2C(=O)N[C@@H](CN2CCC(c3cccc4c3C(C)(C)c3nc(=O)c5c(Cl)cccc5n3-4)CC2)c2ccc(-c3scnc3C)cc2)C(C)C)on1 (stereo partly drawn) [Compound B154, (2S,4R)-N-((R)-2-(4-(4-chloro-7,7-dimethyl-5-oxo-5,7-dihydroindolo[1,2-a]quinazolin-8-yl)piperidin-1-yl)-1-(4-(4-methylthiazol-5-yl)phenyl)ethyl)-4-hydroxy-1-(3-methyl-2-(3-methylisoxazol-5-yl)butanoyl)pyrrolidine-2-carboxamide]	< 100 nM	–	< 100 nM	–	A (A (>90% degradation))	B (B (70-90% degradation))
Cc1ncsc1-c1ccc([C@H](C)NC(=O)[C@@H]2C[C@@H](O)CN2C(=O)[C@H](C(C)C)n2cc(CN3CCC(c4ccc5c(c4)-n4c(nc(=O)c6c(Cl)cccc64)C5(C)C)CC3)nn2)cc1 [Compound B49, (2S,4R)-1-((S)-2-(4-((4-(4-chloro-7,7-dimethyl-5-oxo-5,7-dihydroindolo[1,2-a]quinazolin-10-yl)piperidin-1-yl)methyl)-1H-1,2,3-triazol-1-yl)-3-methylbutanoyl)-4-hydroxy-N-((S)-1-(4-(4-methylthiazol-5-yl)phenyl)ethyl)pyrrolidine-2-carboxamide]	< 100 nM	70 to 90%	> 1000 nM	< 50%	–	–
Cc1ncsc1-c1ccc([C@H](C)NC(=O)[C@@H]2C[C@@H](O)CN2C(=O)[C@@H](c2cc(OC3CCC(CN4CCC(c5ccc6c(c5)C(C)(C)c5nc(=O)c7c(Cl)cccc7n5-6)CC4)CC3)no2)C(C)C)cc1 (stereo partly drawn) [Compound B30, (2S,4R)-1-((R)-2-(3-((4-((4-(4-chloro-7,7-dimethyl-5-oxo-5,7-dihydroindolo[1,2-a]quinazolin-9-yl)piperidin-1-yl)methyl)cyclohexyl)oxy)isoxazol-5-yl)-3-methylbutanoyl)-4-hydroxy-N-((S)-1-(4-(4-methylthiazol-5-yl)phenyl)ethyl)pyrrolidine-2-carboxamide]	< 100 nM	> 90%	< 100 nM	> 90%	–	–
Cc1ncsc1-c1ccc([C@H](C)NC(=O)[C@@H]2C[C@@H](O)CN2C(=O)[C@@H](NC(=O)CCn2cc(-c3ccc4c(c3)C(C)(C)c3nc(=O)c5c(Cl)cccc5n3-4)cn2)C(C)(C)C)cc1 [Compound B101, (2S,4R)-1-((S)-2-(3-(4-(4-chloro-7,7-dimethyl-5-oxo-5,7-dihydroindolo[1,2-a]quinazolin-9-yl)-1H-pyrazol-1-yl)propanamido)-3,3-dimethylbutanoyl)-4-hydroxy-N-((S)-1-(4-(4-methylthiazol-5-yl)phenyl)ethyl)pyrrolidine-2-carboxamide]	> 1000 nM	< 50%	> 1000 nM	< 50%	–	–
Cc1ncsc1-c1ccc([C@H](C)NC(=O)[C@@H]2C[C@@H](O)CN2C(=O)[C@H](C(C)C)n2cc([C@H]3CC[C@H](CN4CCC(c5cccc6c5C(C)(C)c5nc(=O)c7c(Cl)cccc7n5-6)CC4)CC3)nn2)cc1 [Compound B107, (2S,4R)-1-((S)-2-(4-((1r,4S)-4-((4-(4-chloro-7,7-dimethyl-5-oxo-5,7-dihydroindolo[1,2-a]quinazolin-8-yl)piperidin-1-yl)methyl)cyclohexyl)-1H-1,2,3-triazol-1-yl)-3-methylbutanoyl)-4-hydroxy-N-((S)-1-(4-(4-methylthiazol-5-yl)phenyl)ethyl)pyrrolidine-2-carboxamide]	< 100 nM	> 90%	< 100 nM	> 90%	–	–

From patent US20260092071A1, “COMPOUNDS AND COMPOSITIONS AS SMARCA2/4 DEGRADERS AND USES THEREOF” (REGENTS OF THE UNIVERSITY OF MICHIGAN, priority 2022, published 2026)
